system: MCH receptors; experiment: MCH receptor activity class (method not given); details: class by percent of control at 10^-7 M or IC50

Structure (SMILES) | class
COc1cc(OC)c(CNC[C@H]2CC[C@@H](Nc3nc4c(c(N(C)C)n3)CCCC4)CC2)cc1Br [compound 1386] | 3 (Class 3 The value of percent of control at 10^−7 M was more than 60% or the value of IC50 was more than 200 nM.)
COc1ccc(Br)cc1CNC[C@H]1CC[C@@H](Nc2nc3c(c(N(C)C)n2)CCCC3)CC1 [compound 1387] | 3 (Class 3 The value of percent of control at 10^−7 M was more than 60% or the value of IC50 was more than 200 nM.)
CN(C)c1nc(N[C@H]2CC[C@@H](CNCc3ccc(O)cc3Cl)CC2)nc2c1CCCC2 [compound 1388] | 2 (Class 2: The value of percent of control at 10^−7 M was from 40% to 60% or the value of IC′50 was from 50 nM to 200 nM.)
CN(C)c1nc(N[C@H]2CC[C@@H](CNCc3ccccc3C#N)CC2)nc2c1CCCC2 [compound 1389] | 3 (Class 3 The value of percent of control at 10^−7 M was more than 60% or the value of IC50 was more than 200 nM.)
CN(C)c1nc(N[C@H]2CC[C@@H](CNCc3cccc(Cl)c3)CC2)nc2c1CCCC2 [compound 1390] | 3 (Class 3 The value of percent of control at 10^−7 M was more than 60% or the value of IC50 was more than 200 nM.)
CN(C)c1nc(N[C@H]2CC[C@@H](CNCc3ccc(Cl)cc3)CC2)nc2c1CCCC2 [compound 1391] | 3 (Class 3 The value of percent of control at 10^−7 M was more than 60% or the value of IC50 was more than 200 nM.)
CCN(CC)c1ccc(CNC[C@H]2CC[C@@H](Nc3nc4c(c(N(C)C)n3)CCCC4)CC2)cc1 [compound 1392] | 2 (Class 2: The value of percent of control at 10^−7 M was from 40% to 60% or the value of IC′50 was from 50 nM to 200 nM.)
CN(C)c1ccc(CNC[C@H]2CC[C@@H](Nc3nc4c(c(N(C)C)n3)CCCC4)CC2)cc1 [compound 1393] | 3 (Class 3 The value of percent of control at 10^−7 M was more than 60% or the value of IC50 was more than 200 nM.)
CCn1c2ccccc2c2cc(CNC[C@H]3CC[C@@H](Nc4nc5c(c(N(C)C)n4)CCCC5)CC3)ccc21 [compound 1394] | 3 (Class 3 The value of percent of control at 10^−7 M was more than 60% or the value of IC50 was more than 200 nM.)
CN(C)c1nc(N[C@H]2CC[C@@H](CNCc3cc(C(F)(F)F)ccc3F)CC2)nc2c1CCCC2 [compound 1395] | 3 (Class 3 The value of percent of control at 10^−7 M was more than 60% or the value of IC50 was more than 200 nM.)
CN(C)c1nc(N[C@H]2CC[C@@H](CNCc3ccc(O)cc3)CC2)nc2c1CCCC2 [compound 1396] | 3 (Class 3 The value of percent of control at 10^−7 M was more than 60% or the value of IC50 was more than 200 nM.)
CN(C)c1nc(N[C@H]2CC[C@@H](CNCc3ccc(CO)o3)CC2)nc2c1CCCC2 [compound 1397] | 3 (Class 3 The value of percent of control at 10^−7 M was more than 60% or the value of IC50 was more than 200 nM.)
CC(C)Oc1ccc(CNC[C@H]2CC[C@@H](Nc3nc4c(c(N(C)C)n3)CCCC4)CC2)cc1 [compound 1398] | 3 (Class 3 The value of percent of control at 10^−7 M was more than 60% or the value of IC50 was more than 200 nM.)
CCc1ccc(CNC[C@H]2CC[C@@H](Nc3nc4c(c(N(C)C)n3)CCCC4)CC2)s1 [compound 1399] | 3 (Class 3 The value of percent of control at 10^−7 M was more than 60% or the value of IC50 was more than 200 nM.)
CN(C)c1nc(N[C@H]2CC[C@@H](CNCC=C(c3ccccc3)c3ccccc3)CC2)nc2c1CCCC2 [compound 1400] | 1 (Class 1: The value of percent of control at 10^−7 M was less than 40% or the value of IC50 was less than 50 nM.)
CCOc1cc(CNC[C@H]2CC[C@@H](Nc3nc4c(c(N(C)C)n3)CCCC4)CC2)ccc1O [compound 1401] | 2 (Class 2: The value of percent of control at 10^−7 M was from 40% to 60% or the value of IC′50 was from 50 nM to 200 nM.)
CN(C)c1nc(N[C@H]2CC[C@@H](CNCc3ccc(N(C)C)c4ccccc34)CC2)nc2c1CCCC2 [compound 1402] | 2 (Class 2: The value of percent of control at 10^−7 M was from 40% to 60% or the value of IC′50 was from 50 nM to 200 nM.)
COc1cc(OC)c(CNC[C@H]2CC[C@@H](Nc3nc4c(c(N(C)C)n3)CCCC4)CC2)c(OC)c1 [compound 1403] | 1 (Class 1: The value of percent of control at 10^−7 M was less than 40% or the value of IC50 was less than 50 nM.)
CN(C)c1nc(N[C@H]2CC[C@@H](CNCc3cc(Cl)cc(Br)c3O)CC2)nc2c1CCCC2 [compound 1404] | 2 (Class 2: The value of percent of control at 10^−7 M was from 40% to 60% or the value of IC′50 was from 50 nM to 200 nM.)
CN(C)c1nc(N[C@H]2CC[C@@H](CNCc3cccc(C#N)c3)CC2)nc2c1CCCC2 [compound 1405] | 3 (Class 3 The value of percent of control at 10^−7 M was more than 60% or the value of IC50 was more than 200 nM.)
COc1ccc(F)c(CNC[C@H]2CC[C@@H](Nc3nc4c(c(N(C)C)n3)CCCC4)CC2)c1 [compound 1406] | 3 (Class 3 The value of percent of control at 10^−7 M was more than 60% or the value of IC50 was more than 200 nM.)
CN(C)c1nc(N[C@H]2CC[C@@H](CNCc3ccccc3SC(F)(F)F)CC2)nc2c1CCCC2 [compound 1407] | 3 (Class 3 The value of percent of control at 10^−7 M was more than 60% or the value of IC50 was more than 200 nM.)

Structure (SMILES) | class
CCOc1ccc(Br)cc1CNC[C@H]1CC[C@@H](Nc2nc3c(c(N(C)C)n2)CCCC3)CC1 [compound 1408] | 3 (Class 3 The value of percent of control at 10^−7 M was more than 60% or the value of IC50 was more than 200 nM.)
COc1ccc(CNC[C@H]2CC[C@@H](Nc3nc4c(c(N(C)C)n3)CCCC4)CC2)c(OC)c1C [compound 1409] | 3 (Class 3 The value of percent of control at 10^−7 M was more than 60% or the value of IC50 was more than 200 nM.)
CN(C)c1nc(N[C@H]2CC[C@@H](CNCc3ccccc3OC(F)(F)F)CC2)nc2c1CCCC2 [compound 1410] | 3 (Class 3 The value of percent of control at 10^−7 M was more than 60% or the value of IC50 was more than 200 nM.)
CCOc1ccc(OCC)c(CNC[C@H]2CC[C@@H](Nc3nc4c(c(N(C)C)n3)CCCC4)CC2)c1 [compound 1411] | 1 (Class 1: The value of percent of control at 10^−7 M was less than 40% or the value of IC50 was less than 50 nM.)
CCOc1ccc(CNC[C@H]2CC[C@@H](Nc3nc4c(c(N(C)C)n3)CCCC4)CC2)c(OCC)c1 [compound 1412] | 1 (Class 1: The value of percent of control at 10^−7 M was less than 40% or the value of IC50 was less than 50 nM.)
COc1c(Br)cc(Br)cc1CNC[C@H]1CC[C@@H](Nc2nc3c(c(N(C)C)n2)CCCC3)CC1 [compound 1413] | 1 (Class 1: The value of percent of control at 10^−7 M was less than 40% or the value of IC50 was less than 50 nM.)
CN(C)c1nc(N[C@H]2CC[C@@H](CNCc3ccccc3OC(F)F)CC2)nc2c1CCCC2 [compound 1414] | 3 (Class 3 The value of percent of control at 10^−7 M was more than 60% or the value of IC50 was more than 200 nM.)
COc1ccc(F)cc1CNC[C@H]1CC[C@@H](Nc2nc3c(c(N(C)C)n2)CCCC3)CC1 [compound 1415] | 3 (Class 3 The value of percent of control at 10^−7 M was more than 60% or the value of IC50 was more than 200 nM.)
COc1cc(OC)c(OC)cc1CNC[C@H]1CC[C@@H](Nc2nc3c(c(N(C)C)n2)CCCC3)CC1 [compound 1417] | 1 (Class 1: The value of percent of control at 10^−7 M was less than 40% or the value of IC50 was less than 50 nM.)
COc1cccc(CNC[C@H]2CC[C@@H](Nc3nc4c(c(N(C)C)n3)CCCC4)CC2)c1OC [compound 1418] | 3 (Class 3 The value of percent of control at 10^−7 M was more than 60% or the value of IC50 was more than 200 nM.)
C=CCOc1ccccc1CNC[C@H]1CC[C@@H](Nc2nc3c(c(N(C)C)n2)CCCC3)CC1 [compound 1419] | 3 (Class 3 The value of percent of control at 10^−7 M was more than 60% or the value of IC50 was more than 200 nM.)
CN(C)c1nc(N[C@H]2CC[C@@H](CNCc3csc4ccccc34)CC2)nc2c1CCCC2 [compound 1420] | 3 (Class 3 The value of percent of control at 10^−7 M was more than 60% or the value of IC50 was more than 200 nM.)
CN(C)c1nc(N[C@H]2CC[C@@H](CNCc3cn(C)c4ccccc34)CC2)nc2c1CCCC2 [compound 1421] | 3 (Class 3 The value of percent of control at 10^−7 M was more than 60% or the value of IC50 was more than 200 nM.)
Cc1ccc(CNC[C@H]2CC[C@@H](Nc3nc4c(c(N(C)C)n3)CCCC4)CC2)s1 [compound 1422] | 3 (Class 3 The value of percent of control at 10^−7 M was more than 60% or the value of IC50 was more than 200 nM.)
Cc1cc(C)c(CNC[C@H]2CC[C@@H](Nc3nc4c(c(N(C)C)n3)CCCC4)CC2)c(C)c1 [compound 1423] | 3 (Class 3 The value of percent of control at 10^−7 M was more than 60% or the value of IC50 was more than 200 nM.)
CN(C)c1nc(N[C@H]2CC[C@@H](CNCc3ccc4c(c3)OCO4)CC2)nc2c1CCCC2 [compound 1424] | 3 (Class 3 The value of percent of control at 10^−7 M was more than 60% or the value of IC50 was more than 200 nM.)
CN(C)c1nc(N[C@H]2CC[C@@H](CNCc3ccsc3)CC2)nc2c1CCCC2 [compound 1425] | 3 (Class 3 The value of percent of control at 10^−7 M was more than 60% or the value of IC50 was more than 200 nM.)
Cc1cccc(CNC[C@H]2CC[C@@H](Nc3nc4c(c(N(C)C)n3)CCCC4)CC2)c1 [compound 1426] | 3 (Class 3 The value of percent of control at 10^−7 M was more than 60% or the value of IC50 was more than 200 nM.)
Cc1ccccc1CNC[C@H]1CC[C@@H](Nc2nc3c(c(N(C)C)n2)CCCC3)CC1 [compound 1427] | 3 (Class 3 The value of percent of control at 10^−7 M was more than 60% or the value of IC50 was more than 200 nM.)
Cc1ccc(CNC[C@H]2CC[C@@H](Nc3nc4c(c(N(C)C)n3)CCCC4)CC2)cc1 [compound 1428] | 3 (Class 3 The value of percent of control at 10^−7 M was more than 60% or the value of IC50 was more than 200 nM.)
CN(C)c1nc(N[C@H]2CC[C@@H](CNCc3cc(Cl)cc(Cl)c3)CC2)nc2c1CCCC2 [compound 1429] | 3 (Class 3 The value of percent of control at 10^−7 M was more than 60% or the value of IC50 was more than 200 nM.)

From US20050197350A1, “Novel quinoline, tetrahydroquinazoline, and pyrimidine derivatives and methods of treatment related to the use thereof” (TAISHO PHARMACEUTICAL CO., LTD., priority 2003, published 2005)
